Tests used:
[1] = target: T1, Cellular PKMYT1 Biomarker CDK1 pT14 (Homo sapiens, UniProt Q99640); experiment: Inhibition of cellular PKMYT1 biomarker CDK1 pT14 in OVCAR 3 cells (immunoblot); type: cell-based; conditions: 20 hours incubation
T1 construct: read-out CDK1 phospho-T14 immunoblot
T1 sequence (Q99640 1-499): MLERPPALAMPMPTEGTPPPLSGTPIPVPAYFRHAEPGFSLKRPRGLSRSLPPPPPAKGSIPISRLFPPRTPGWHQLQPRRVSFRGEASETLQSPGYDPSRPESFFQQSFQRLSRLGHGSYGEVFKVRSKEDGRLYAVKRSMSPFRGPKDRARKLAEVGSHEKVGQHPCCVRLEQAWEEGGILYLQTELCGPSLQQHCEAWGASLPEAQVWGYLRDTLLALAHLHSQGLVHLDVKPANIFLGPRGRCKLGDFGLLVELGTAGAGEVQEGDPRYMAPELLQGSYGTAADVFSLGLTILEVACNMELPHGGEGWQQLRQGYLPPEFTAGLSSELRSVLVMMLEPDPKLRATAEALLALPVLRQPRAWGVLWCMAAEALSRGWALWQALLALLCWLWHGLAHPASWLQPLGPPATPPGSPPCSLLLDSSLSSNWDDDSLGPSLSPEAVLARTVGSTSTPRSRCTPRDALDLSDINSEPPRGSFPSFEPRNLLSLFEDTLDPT
Method in brief: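 Confluent OVCAR 3 cells treated with a compound concentration range for 20 h at 37 °C. Lysates analysed by automated capillary immunoblot for CDK1 phospho-T14, with vinculin, fluorescence detection; IC50 by regression.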

KYSE-30 cells = experiment: Cancer cell line proliferation assay, ATP-based cell viability (Cell Titre Glow), KYSE-30 (normal CCNE1); conditions: Homo sapiens, KYSE-30 cells (normal CCNE1), concentration that achieves 50% cell growth proliferation inhibition, read-out: KYSE30 Gl50
Method in brief: (§1)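 Proliferation of KYSE-30 (normal CCNE1) and CCNE1-amplified OVCAR 3 ovarian cancer cells treated with PKMYT1 inhibitors, read by Cell Titre Glow luminescence. GI50 is the concentration giving 50% growth inhibition.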

WEE1 = target: T2, WEE1 (Homo sapiens, UniProt P30291); experiment: Selectivity versus WEE1 assay (ADP-Glo enzymatic assay); type: biochemical; conditions: for IC50: ADP-Glo; for PKMYT1 vs. WEE1 selectivity: fold difference in selectivity for PKMYT1 over WEE1
T2 construct: purchased Thermo Fisher PR7373A
Method in brief: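 ADP-Glo luminescence read-out after a 60 min reaction at 26° C, initiated by 30 µM ATP, with 15 nM enzyme in HEPES pH 7.5/MgCl2/EGTA/Brij-35 buffer containing 1% DMSO. Replicate IC50 values had to agree within 3-fold and fits needed r2 >0.9.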

OVCAR 3 cells = experiment: Cancer cell line proliferation assay, ATP-based cell viability (Cell Titre Glow), OVCAR 3 (CCNE1-amplified); conditions: KYSE30 (normal CCNE1) GI50 vs. OVCAR 3 (CCNE1-amplified) GI50
Method in brief: as §1

Human PKMYT1 = target: T3, Human PKMYT1 (Homo sapiens, UniProt Q99640); experiment: PKMYT1 biochemical ADP-Glo enzymatic assay; conditions: ADP-Glo
T3 construct: Human PKMYT1 75-362 was cloned as a TEV cleavable 6xHis fusion; 6xHis (TEV cleavable) (cleaved yes); made in house; host or cells: bacterial cells
T3 sequence (Q99640 75-362): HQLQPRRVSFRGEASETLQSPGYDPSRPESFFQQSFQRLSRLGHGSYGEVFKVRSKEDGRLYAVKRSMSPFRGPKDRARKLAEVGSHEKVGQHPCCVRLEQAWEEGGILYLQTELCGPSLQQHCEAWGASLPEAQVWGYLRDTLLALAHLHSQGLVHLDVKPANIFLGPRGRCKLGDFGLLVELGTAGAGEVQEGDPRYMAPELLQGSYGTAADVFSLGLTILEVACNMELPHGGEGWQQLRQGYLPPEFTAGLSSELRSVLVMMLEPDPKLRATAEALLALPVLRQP
Method in brief: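 Luminescent ADP-Glo Max read-out of ADP produced by 15 nM PKMYT1 (residues 75-362, bacterial, His-tag removed) from 500 µM ATP without peptide substrate. Reaction: 50 mM HEPES pH 7.5, 10 mM MgCl2, 1 mM EGTA, 0.01% Brij-35, 60 min, 26 °C. IC50 values fitted from 10-point curves.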

[2] = 15 nM WEE1, 60 minutes at 26° C., banded
[3] = banded, ">N" = at least in this band but could be higher
[4] = 15 nM PKMYT1 kinase domain, 500 µM ATP, 60 minutes at 26° C., banded
[5] = PKMYT1 kinase domain 15 nM, banded values

T2 sequence (P30291 whole entry): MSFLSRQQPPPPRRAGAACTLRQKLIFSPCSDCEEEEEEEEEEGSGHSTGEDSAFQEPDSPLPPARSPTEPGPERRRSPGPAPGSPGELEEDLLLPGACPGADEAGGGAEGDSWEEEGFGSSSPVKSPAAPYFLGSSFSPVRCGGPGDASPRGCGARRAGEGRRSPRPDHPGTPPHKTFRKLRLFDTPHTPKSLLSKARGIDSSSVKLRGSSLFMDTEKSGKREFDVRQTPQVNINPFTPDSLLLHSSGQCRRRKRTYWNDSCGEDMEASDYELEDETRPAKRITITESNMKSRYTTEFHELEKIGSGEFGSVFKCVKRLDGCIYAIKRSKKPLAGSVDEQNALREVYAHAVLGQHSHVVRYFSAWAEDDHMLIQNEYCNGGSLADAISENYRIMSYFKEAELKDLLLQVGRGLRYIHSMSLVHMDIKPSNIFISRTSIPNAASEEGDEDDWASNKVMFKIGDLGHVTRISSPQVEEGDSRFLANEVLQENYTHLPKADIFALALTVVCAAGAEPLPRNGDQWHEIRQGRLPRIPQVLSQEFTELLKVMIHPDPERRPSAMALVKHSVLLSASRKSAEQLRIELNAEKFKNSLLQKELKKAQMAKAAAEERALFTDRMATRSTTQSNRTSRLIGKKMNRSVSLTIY

| SMILES | IC50 [1] | GI50 (KYSE-30 cells) | IC50 (WEE1; [2]) | PKMYT1 vs. WEE1 selectivity (WEE1; [3]) | Selectivity ratio KYSE30 Gl50 vs. OVCAR3 Gl50 (OVCAR 3 cells) | IC50 (Human PKMYT1; [4]) | IC50 (WEE1; WEE1 15 nM, banded values) | PKMYT1 vs. WEE1 selectivity (WEE1; banded) | IC50 (Human PKMYT1; [5]) |
| --- | --- | --- | --- | --- | --- | --- | --- | --- | --- |
| Cc1ccc(O)c(C)c1NC(=O)c1cnc(Nc2cccc(N3CCC(NC(=O)OC(C)(C)C)CC3)n2)s1 [BAA-327, tert-butyl(1-(6-((5-((3-hydroxy-2,6-dimethylphenyl)carbamoyl)thiazol-2-yl)amino)pyridin-2-yl)piperidin-4-yl)carbamate] | 100 to 1000 nM | 0.5 to 5 µM | > 11 µM | X (100-<1000 fold) | Y (>20 fold) | 50 to 1000 nM | – | – | – |
| Cc1ccc(NC(=O)C(C)C)nc1Nc1ncc(C(=O)Nc2c(C)ccc(O)c2C)s1.Cl [BAA-332, N-(3-hydroxy-2,6-dimethylphenyl)-2-((6-isobutyramido-3-methylpyridin-2-yl)amino)thiazole-5-carboxamide hydrochloride] | < 100 nM | 0.5 to 5 µM | > 11 µM | X (100-<1000 fold) | Y (>20 fold) | < 50 nM | – | – | – |
| Cc1ccc(O)c(C)c1NC(=O)c1cnc(Nc2cccc(-c3ccc(C(F)(F)F)cc3)n2)s1 [BAA-316, N-(3-hydroxy-2,6-dimethylphenyl)-2-((6-(4-(trifluoromethyl)phenyl)pyridin-2-yl)amino)thiazole-5-carboxamide] | 100 to 1000 nM | 0.5 to 5 µM | > 11 µM | Y (1000-5000 fold) | Y (>20 fold) | 50 to 1000 nM | – | – | – |
| CCN(CCOC)C(=O)Cn1cc(C)c(Nc2ncc(C(=O)Nc3c(C)ccc(O)c3C)s2)n1 [BAA-550, 2-((1-(2-(ethyl(2-methoxyethyl)amino)-2-oxoethyl)-4-methyl-1H-pyrazol-3-yl)amino)-N-(3-hydroxy-2,6-dimethylphenyl)thiazole-5-carboxamide] | < 100 nM | > 5 µM | – | – | Y (>20 fold) | – | 1 to 11 µM | X (100-<1000 fold) | < 50 nM |
| Cc1ccc(O)c(C)c1NC(=O)c1cnc(Nc2cccc(C3CC3)n2)s1 [BAA-409, 2-((6-cyclopropylpyridin-2-yl)amino)-N-(3-hydroxy-2,6-dimethylphenyl)thiazole-5-carboxamide] | < 100 nM | 0.5 to 5 µM | – | – | Y (>20 fold) | – | 1 to 11 µM | X (100-<1000 fold) | < 50 nM |
| Cc1cn(CC(=O)N2CCC2C)nc1Nc1ncc(C(=O)Nc2c(C)ccc(O)c2C)s1 (stereo not drawn) [BAA-598, N-(3-hydroxy-2,6-dimethylphenyl)-2-((4-methyl-1-(2-(2-methylazetidin-1-yl)-2-oxoethyl)-1H-pyrazol-3-yl)amino)thiazole-5-carboxamide] | < 100 nM | 0.5 to 5 µM | – | – | Y (>20 fold) | – | 1 to 11 µM | X (100-<1000 fold) | < 50 nM |
| COc1ccnc(Nc2ncc(C(=O)Nc3c(C)ccc(O)c3C)s2)c1 [BAA-418, N-(3-hydroxy-2,6-dimethylphenyl)-2-((4-methoxypyridin-2-yl)amino)thiazole-5-carboxamide] | < 100 nM | 0.5 to 5 µM | – | – | Y (>20 fold) | – | 1 to 11 µM | X (100-<1000 fold) | < 50 nM |
| Cc1cnccc1-n1cc(C)c(Nc2ncc(C(=O)Nc3c(C)ccc(O)c3C)s2)n1 [BAA-384, N-(3-hydroxy-2,6-dimethylphenyl)-2-((4-methyl-1-(3-methylpyridin-4-yl)-1H-pyrazol-3-yl)amino)thiazole-5-carboxamide] | < 100 nM | 0.5 to 5 µM | 1 to 11 µM | X (100-<1000 fold) | Y (>20 fold) | < 50 nM | – | – | – |
| Cc1cn(C2COC2)nc1Nc1ncc(C(=O)Nc2c(C)ccc(O)c2C)s1 [BAA-269, N-(3-hydroxy-2,6-dimethylphenyl)-2-((4-methyl-1-(oxetan-3-yl)-1H-pyrazol-3-yl)amino) thiazole-5-carboxamide] | < 100 nM | 0.5 to 5 µM | 0.05 to 1 µM | W (10-<100 fold) | Y (>20 fold) | < 50 nM | – | – | – |
| Cc1ccc(O)c(C)c1NC(=O)c1cnc(Nc2nn(C)c3ccccc23)s1 [BAA-126, N-(3-hydroxy-2,6-dimethyl-phenyl)-2-[(1-methylindazol-3-yl)amino]thiazole-5-carboxamide] | < 100 nM | > 5 µM | 1 to 11 µM | X (100-<1000 fold) | Y (>20 fold) | < 50 nM | – | – | – |
| Cc1cn(CC(=O)N(C)C2CCC2)nc1Nc1ncc(C(=O)Nc2c(C)ccc(O)c2C)s1 [BAA-595, 2-((1-(2-(cyclobutyl(methyl)amino)-2-oxoethyl)-4-methyl-1H-pyrazol-3-yl)amino)-N-(3-hydroxy-2,6-dimethylphenyl)thiazole-5-carboxamide] | < 100 nM | > 5 µM | – | – | Y (>20 fold) | – | 1 to 11 µM | X (100-<1000 fold) | < 50 nM |
| Cc1ccc(O)c(C)c1NC(=O)c1cnc(Nc2cc(N3CCOCC3)ncn2)s1 [BAA-571, N-(3-hydroxy-2,6-dimethylphenyl)-2-((6-morpholinopyrimidin-4-yl)amino)thiazole-5-carboxamide] | < 100 nM | 0.5 to 5 µM | – | – | Y (>20 fold) | – | 0.05 to 1 µM | W (10-<100 fold) | < 50 nM |
| CCOc1ccc(Nc2ncc(C(=O)Nc3c(C)ccc(O)c3C)s2)nc1C [BAA-430, 2-((5-ethoxy-6-methylpyridin-2-yl)amino)-N-(3-hydroxy-2,6-dimethylphenyl)thiazole-5-carboxamide] | < 100 nM | > 5 µM | – | – | Y (>20 fold) | – | > 11 µM | Y (1000-5000 fold) | < 50 nM |
| Cc1cc(Nc2ncc(C(=O)Nc3c(C)ccc(O)c3C)s2)nc(OCC(F)(F)F)n1 [BAA-319, N-(3-hydroxy-2,6-dimethylphenyl)-2-((6-methyl-2-(2,2,2-trifluoroethoxy)pyrimidin-4-yl)amino)thiazole-5-carboxamide] | < 100 nM | 0.5 to 5 µM | > 11 µM | Y (1000-5000 fold) | Y (>20 fold) | < 50 nM | – | – | – |
| CCN(CC)C(=O)Cn1cc(Cl)c(Nc2ncc(C(=O)Nc3c(C)ccc(O)c3C)s2)n1 [BAA-560, 2-((4-chloro-1-(2-(diethylamino)-2-oxoethyl)-1H-pyrazol-3-yl)amino)-N-(3-hydroxy-2,6-dimethylphenyl)thiazole-5-carboxamide] | < 100 nM | 0.5 to 5 µM | – | – | Y (>20 fold) | – | 1 to 11 µM | X (100-<1000 fold) | < 50 nM |
